In general, IC50 refers to the concentration that gives 50% inhibition.

These results are taken from PMC10035370, “Targeting Tumor Angiogenesis with the Selective VEGFR-3 Inhibitor EVT801 in Combination with Cancer Immunotherapy” (Cancer Research Communications, 2022).

Data set [1] deals with NCI-H1703 cells. Briefly: NCI-H1703 viability (ATP reduction). Conditions: Homo sapiens, in vitro. The data set is classed as cell-based. The method, then: NCI-H1703 were seeded in 96-well plates coated with 0.3 % gelatin (5 x 10^3 cells per well) and were incubated in RPMI 0.1 % FCS with VEGF-C (300 ng/mL) or VEGF-D (300 ng/mL) in the absence or presence of increasing doses of EVT801. After 5 days, viable cells were quantified with the cell Titer-glo luminescent cell viability assay (Promega) as previously described (1).

Data set [2] relates to Rip1-Tag2 tumors. Description: Rip1-Tag2 transgenic mouse model. The data set is classed as in vivo, mice. As for the experimental part: The Rip1-Tag2/transgenic mouse models were used as reported previously ([29]). Briefly, treatment of mice started at the age of 12 weeks. Mice were treated daily for 16 days, and volume of each tumor was measured and calculated as described for the 4T1 mammary carcinoma mouse model below. The tumor burden was calculated as the sum of individual tumor volumes for each mouse. For the survival study, daily treatment started at the age of 12 weeks, and mice were monitored daily to detect moribund mice for euthanasia. CD31-positive vessel density within the tumors were quantified by density index (1 vessel/mm^2) measured using the Definiens software. Individual density indices were plotted as the mean ± SD for each group. Statistical significance was assessed by Kruskall–Wallis followed by Dunnet multiple comparison test.

In data set [3] the test system is 4T1 tumors. Description: 4T1 mammary carcinoma mouse model, with anti-PD-1. The data set is classed as in vivo, mice. The method, then: The 4T1 mammary carcinoma mouse models were used as reported previously ([26]). Briefly, 1 × 10^5 4T1 cells were implanted into mammary fat pads of BALB/c mice. […] Tumors were measured two to three times weekly with calipers. The tumor volume (V) was calculated using the formula V = 0.52 × a^2 × b (a: smallest tumor diameter; b: largest tumor diameter). The tumors, lungs, and axillary lymph nodes were removed at day 21 for treatment with anti-PD-1, and day 28 for treatment with anti-CTLA-4. The tumors and the lungs were embedded in paraffin for histology studies. […] The metastatic scoring was determined as follows: (0) no metastasis; ([1]) 1 to 20 metastases < 50 μm; ([2]) between 21 and 50 metastases < 50 μm; ([3]) 1 or more metastases > […]; ([4]) 1 or more metastases > […].

Data set [4] in a line: Pharmacokinetics in rats. As to conditions: rat, plasma; Sprague-Dawley rats, 10 mg/kg; read-out: T1/2 in plasma (converted). It is filed as in vivo. The method, then:
Plasma samples and tumor homogenates were mixed with the precipitant solution (acetonitrile containing internal standard). The supernatant (180 µL) was transferred in a 96-well plate and 5 µL were injected. EVT801 and its main metabolite were quantified by LC-MS/MS following standard conditions.

A short description of data set [5]: Blood pressure in telemetered rat model of hypertension. Conditions: dose as high as 500 mg/kg, single oral administration. The data set is classed as in vivo. The method, then: Supplementary Figure 8. EVT801 and sorafenib show opposing effects on blood pressure in rats. (A) Monitoring of the blood pressure over 24 h after single oral administration of 100 mg/kg EVT801 or 500 mg/kg of EVT801, compared to animals treated with vehicle. (B) Monitoring of the blood pressure over 24 h after single oral administration of 10 mg/kg sorafenib, 30 mg/kg sorafenib or 100 mg/kg of sorafenib, compared to animals treated with vehicle.

Data set [6] deals with T1, VEGFR-2 (Homo sapiens, UniProt P35968). Briefly: Cellular autophosphorylation assay, HEK293 cells transiently expressing VEGFR-2. The data set is classed as cell-based. The arrangement: expressed in transfected cells; host or cells: HEK293T. Conditions: read-out: IC50 in cellular assays, VEGFR-2 autophosphorylation. As for the experimental part:
Transfection of HEK293T cells and Ba/F3 cells with VEGFR-1-Flag, VEGFR-2-Flag or VEGFR-3-Flag expression constructs was performed using Fugene-6 (Roche) as per manufacturer’s protocol. Briefly, Fugene-6 was pre-incubated with Opti-Mem (Gibco) before adding DNA. After 24 h, media was replaced with serum-free culture media containing 0.2 % BSA. On the next day, cells were incubated for 1 h in 1 mM orthovanadate, harvested, dissociated and distributed at 4 x 10^5 cells in 5 mL for HEK-VEGFR-1 and HEK-VEGFR-3, and 5 x 10^4 cells per 5 mL for HEK VEGFR-2 in the presence of EVT801 or SAR401849. After 30 min, the reaction was stopped by the addition of cold PBS supplemented with 1 mM orthovanadate. Cells were then lysed with 150 μl of RIPA buffer for 15 min at 4°C, then centrifuged for 10 min at 10,000 g. Supernatants (75 μl) were distributed in duplicate on 96 well plates that were precoated with the anti-flag, and left for 1 h at room temperature. After 3 washes, the anti-phosphotyrosine conjugated to the HRP was added and incubated for 1 h at room temperature. Wells were then washed 3 times with TBS buffer containing 0.5 % Tween-20 and 2 mM MgCl2. The reaction was stopped with 50 μL of 2 N H2SO4, and the signal was read with Envision at the wavelengths of 485 nm and 530 nm.
Target sequence in this assay (P35968 20-1356): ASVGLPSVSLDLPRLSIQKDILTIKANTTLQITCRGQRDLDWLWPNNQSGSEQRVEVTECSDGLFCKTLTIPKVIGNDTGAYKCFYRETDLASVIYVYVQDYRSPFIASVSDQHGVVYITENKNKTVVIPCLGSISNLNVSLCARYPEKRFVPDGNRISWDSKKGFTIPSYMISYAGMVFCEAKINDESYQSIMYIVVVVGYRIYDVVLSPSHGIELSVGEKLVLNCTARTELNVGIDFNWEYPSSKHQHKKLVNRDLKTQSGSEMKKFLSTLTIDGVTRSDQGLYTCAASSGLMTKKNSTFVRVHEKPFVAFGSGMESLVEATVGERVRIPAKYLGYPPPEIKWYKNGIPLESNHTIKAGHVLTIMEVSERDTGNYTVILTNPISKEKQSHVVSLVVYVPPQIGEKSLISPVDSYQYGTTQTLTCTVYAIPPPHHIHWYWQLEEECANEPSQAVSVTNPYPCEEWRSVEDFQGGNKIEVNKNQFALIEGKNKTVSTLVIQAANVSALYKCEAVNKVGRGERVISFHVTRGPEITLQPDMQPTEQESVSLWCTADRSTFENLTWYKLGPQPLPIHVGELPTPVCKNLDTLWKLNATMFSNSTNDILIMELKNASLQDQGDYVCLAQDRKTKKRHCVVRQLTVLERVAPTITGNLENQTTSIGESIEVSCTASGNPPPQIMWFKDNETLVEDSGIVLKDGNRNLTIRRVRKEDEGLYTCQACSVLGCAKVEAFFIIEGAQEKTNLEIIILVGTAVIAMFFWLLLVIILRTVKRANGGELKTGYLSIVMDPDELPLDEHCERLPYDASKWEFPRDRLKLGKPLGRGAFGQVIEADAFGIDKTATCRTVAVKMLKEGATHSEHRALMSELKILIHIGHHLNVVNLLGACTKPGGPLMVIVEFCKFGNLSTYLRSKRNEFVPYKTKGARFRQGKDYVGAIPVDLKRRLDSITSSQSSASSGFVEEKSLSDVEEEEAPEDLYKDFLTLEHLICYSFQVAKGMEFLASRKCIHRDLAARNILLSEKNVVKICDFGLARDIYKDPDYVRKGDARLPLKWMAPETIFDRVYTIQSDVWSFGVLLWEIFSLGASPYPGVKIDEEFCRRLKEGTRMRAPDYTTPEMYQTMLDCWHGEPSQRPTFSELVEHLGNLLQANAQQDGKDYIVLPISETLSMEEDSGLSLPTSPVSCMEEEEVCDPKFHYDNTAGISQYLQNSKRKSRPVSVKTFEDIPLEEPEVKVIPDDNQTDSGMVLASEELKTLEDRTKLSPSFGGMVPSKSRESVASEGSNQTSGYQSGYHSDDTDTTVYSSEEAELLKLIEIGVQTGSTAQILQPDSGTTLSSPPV

For data set [7], the target named is T1, VEGFR-2. Description: Viability of Ba/F3 cells dependent on VEGFR-2. It is filed as cell-based. The arrangement: fusion proteins consisting of constructs for IL-3 independent survival and either VEGFR-2 or VEGFR-3 kinase domains; expressed in transfected cells; host or cells: Ba/F3 (stably transduced). The method, then: (§1) Ba/F3 cells were transduced and selected to stably express fusion proteins consisting of constructs for IL-3 independent survival and either VEGFR-2 or VEGFR-3 kinase domains or without the kinase domain. Proliferation and survival of cell lines was dependent on expression of the transcript. Cells in logarithmic-phase growth were harvested and 5 x 10^3 cells were distributed into each well of a 384-well plate in 50 µL of medium. Then, 50 nL of EVT801, SAR401849 or their vehicle solvent were added to appropriate wells. After 48 h, viability was determined by addition of 10 µL CellTiterGlo reagent (Promega). Luminescence was determined as relative light units (RLU) in counts per second.
Target sequence in this assay (P35968 834-1162 limits assumed, species assumed): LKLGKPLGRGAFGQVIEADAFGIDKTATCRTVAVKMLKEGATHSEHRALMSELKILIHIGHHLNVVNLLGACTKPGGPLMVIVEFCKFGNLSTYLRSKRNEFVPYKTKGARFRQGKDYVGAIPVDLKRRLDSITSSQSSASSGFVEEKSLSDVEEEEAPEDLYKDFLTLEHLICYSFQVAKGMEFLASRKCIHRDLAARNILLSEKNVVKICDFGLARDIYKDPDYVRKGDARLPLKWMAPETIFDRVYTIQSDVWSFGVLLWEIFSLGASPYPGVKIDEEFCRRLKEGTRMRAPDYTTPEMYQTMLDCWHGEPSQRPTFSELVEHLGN

In data set [8] the target is VEGFR-3 (Homo sapiens, UniProt P35916). Description: Viability of Ba/F3 cells dependent on VEGFR-3. Further details: fusion proteins consisting of constructs for IL-3 independent survival and either VEGFR-2 or VEGFR-3 kinase domains; expressed in transfected cells; host or cells: Ba/F3 (stably transduced). The data set is classed as cell-based. As for the experimental part:
as §1

VEGFR-3, sequence (P35916 845-1173 limits assumed, species assumed): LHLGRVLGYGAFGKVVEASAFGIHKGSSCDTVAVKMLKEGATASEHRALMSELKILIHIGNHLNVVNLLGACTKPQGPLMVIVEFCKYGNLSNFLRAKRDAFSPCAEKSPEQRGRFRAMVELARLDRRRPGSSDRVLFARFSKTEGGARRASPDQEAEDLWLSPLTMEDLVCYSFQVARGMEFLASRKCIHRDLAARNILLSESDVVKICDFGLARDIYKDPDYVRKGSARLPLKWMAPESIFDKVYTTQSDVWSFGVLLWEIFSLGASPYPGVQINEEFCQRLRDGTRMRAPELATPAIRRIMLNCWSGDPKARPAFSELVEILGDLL

Turning to `CCn1c(N)c(-c2ncc[nH]2)c(=O)c2ccc(C#C[C@@](C)(O)COC)nc21` [EVT801], the IC50 was 109 nM in data set [1], 260 nM in data set [6], 248 nM in data set [7] and 24 nM in data set [8]. Further, the “T/C ratio, tumor volume” value was determined as 63% in data set [2] (30 mg/kg/day, 2 weeks); 16% in data set [2] (100 mg/kg/day, 2 weeks); 43% in data set [3] (orthotopic, 2 weeks, EVT801 30 mg/kg twice per day and/or anti-PD-1 twice per week). The “average number of tumors per pancreas” value in data set [2] (30 mg/kg/day, 2 weeks) is recorded as “three”. Besides, the “reduction in tumor volume” value in data set [2] (30 mg/kg/day, 2 weeks) is given as 37%. For the same compound, the “reduction of number of pancreatic tumors” value in data set [2] (30 mg/kg/day, 2 weeks) is given as 67%; in data set [2] (100 mg/kg/day, 2 weeks) it was 91%. Further, in data set [2] (30 and 100 mg/kg/day), the “overall survival of the mice” value is “dose-dependently increased”. Also, in data set [3] (endpoint, not statistically significant), the “intratumor infiltrated CD8+ cells” value is recorded as “globally doubled”. For the same compound, in data set [4], the half-life is 2.4 h. In data set [5], the “effect on blood pressure” value is recorded as “did not increase blood pressure”.
